Results as given in the CheMixHub viscosity set.
“And” between values parts separate entries of the source, which are not always exact repeats. Equal entries are not always repeated. ± gives the uncertainty stated by the source.

Row | Structure (SMILES) | viscosity (298.15 K, 101 kPa) | viscosity (298.15 K, 101.33 kPa) | viscosity (303.15 K, 101 kPa) | viscosity (308.15 K, 101 kPa) | viscosity (313.15 K, 101 kPa) | viscosity (323.15 K, 101 kPa) [mPa·s] | viscosity (318.15 K, 101 kPa) | viscosity (298.15 K, 100 kPa) | viscosity (303.15 K, 100 kPa) | viscosity (308.15 K, 100 kPa) | viscosity (313.15 K, 100 kPa) [mPa·s] | other results
1 | C=CC#N | 0.342 ± 0.009 mPa·s | 0.339 ± 0.005 mPa·s | 0.325 ± 0.009 mPa·s | 0.3296 ± 0.0037 mPa·s | 0.305 ± 0.008 mPa·s | 0.287 ± 0.008 |  |  |  |  |  | viscosity (293.15 K, 101 kPa): 0.362 ± 0.01 mPa·s; viscosity (303.15 K, 101.3 kPa): 0.3111 ± 0.003 mPa·s and 0.3111 ± 0.0049 mPa·s; viscosity (303.15 K, 101.33 kPa): 0.324 ± 0.005 mPa·s and 0.324 ± 0.01 mPa·s and 0.326 ± 0.005 mPa·s; viscosity (307.4 K, 101.33 kPa): 0.76 ± 0.01 mPa·s and 0.53 ± 0.005 mPa·s and 0.584 ± 0.005 mPa·s
2 | Cc1ccc(C(C)C)cc1 |  |  |  |  |  |  |  |  |  |  |  | viscosity (293.15 K, 101 kPa): 0.826 ± 0.016 mPa·s
3 | CC[N+](C)(CC)CCOC.O=S(=O)([N-]S(=O)(=O)C(F)(F)F)C(F)(F)F | 119.2 ± 4 mPa·s |  | 89.7 ± 2.4 mPa·s | 67.72 ± 1.5 mPa·s | 53.02 ± 1.1 mPa·s | 33.06 ± 0.7 | 40.98 ± 0.87 mPa·s |  |  |  |  | viscosity (293.15 K, 101 kPa): 162.2 ± 6.7 mPa·s
4 | O=C1CCCCCO1 |  |  | 4.885 ± 0.32 mPa·s | 4.324 ± 0.28 mPa·s | 3.818 ± 0.25 mPa·s |  | 3.42 ± 0.23 mPa·s |  |  |  |  | 
5 | CCCCC(C)CC (stereo not drawn) |  |  |  |  |  |  |  | 0.485 ± 0.011 mPa·s | 0.462 ± 0.01 mPa·s | 0.44 ± 0.01 mPa·s | 0.422 ± 0.009 | viscosity (293.15 K, 100 kPa): 0.512 ± 0.011 mPa·s
6 | [2H]O[2H] |  |  | 0.981 ± 0.026 mPa·s | 0.879 ± 0.023 mPa·s | 0.791 ± 0.021 mPa·s |  |  |  |  |  |  | viscosity (293.15 K, 101 kPa): 1.253 ± 0.022 mPa·s; viscosity (297.15 K, 101 kPa): 1.128 ± 0.03 mPa·s; viscosity (299.15 K, 101 kPa): 1.072 ± 0.029 mPa·s; viscosity (300.15 K, 101 kPa): 0.994 ± 0.021 mPa·s and 1.05 ± 0.028 mPa·s; viscosity (301.15 K, 101 kPa): 1.026 ± 0.027 mPa·s; viscosity (302.15 K, 101 kPa): 1 ± 0.027 mPa·s; viscosity (303.1 K, 101 kPa): 0.973 ± 0.017 mPa·s; viscosity (304.15 K, 101 kPa): 0.964 ± 0.026 mPa·s; viscosity (305.15 K, 101 kPa): 0.884 ± 0.021 mPa·s and 0.942 ± 0.025 mPa·s; viscosity (306.15 K, 101 kPa): 0.924 ± 0.025 mPa·s; viscosity (307.15 K, 101 kPa): 0.901 ± 0.024 mPa·s; viscosity (309.15 K, 101 kPa): 0.861 ± 0.023 mPa·s; viscosity (310.15 K, 101 kPa): 0.842 ± 0.022 mPa·s; viscosity (311.15 K, 101 kPa): 0.826 ± 0.022 mPa·s; viscosity (312.15 K, 101 kPa): 0.809 ± 0.022 mPa·s; viscosity (313.1 K, 101 kPa): 0.785 ± 0.014 mPa·s; viscosity (323.1 K, 101 kPa): 0.649 ± 0.013 mPa·s
7 | Cn1ccnc1 | 1.68 ± 0.1 mPa·s |  |  | 1.382 ± 0.012 mPa·s and 1.415 ± 0.086 mPa·s |  |  | 1.213 ± 0.073 mPa·s | 1.778 ± 0.18 mPa·s and 1.778 ± 0.073 mPa·s |  | 1.482 ± 0.15 mPa·s and 1.482 ± 0.061 mPa·s |  | viscosity (318.15 K, 100 kPa): 1.267 ± 0.13 mPa·s and 1.267 ± 0.052 mPa·s
8 | CCC(C)(C)O | 3.506 ± 0.091 mPa·s and 3.532 ± 0.032 mPa·s and 4.413 ± 0.038 mPa·s |  |  |  |  |  | 1.681 ± 0.044 mPa·s |  |  |  |  | viscosity (298.15 K, 101.3 kPa): 3.52 ± 0.096 mPa·s; viscosity (303.15 K, 101.3 kPa): 2.87 ± 0.079 mPa·s; viscosity (303.15 K, 101.33 kPa): 2.854 ± 0.034 mPa·s; viscosity (308.15 K, 101.3 kPa): 2.37 ± 0.065 mPa·s; viscosity (313.15 K, 101.3 kPa): 1.96 ± 0.054 mPa·s; viscosity (313.15 K, 101.33 kPa): 1.976 ± 0.023 mPa·s; viscosity (323.15 K, 101.33 kPa): 1.416 ± 0.017 mPa·s
9 | CCCCC(C)O (stereo not drawn) |  | 4.047 ± 0.037 mPa·s and 4.047 ± 0.032 mPa·s |  |  |  |  |  |  | 3.29 ± 0.17 mPa·s | 2.71 ± 0.14 mPa·s | 2.28 ± 0.12 | viscosity (318.15 K, 100 kPa): 1.93 ± 0.1 mPa·s
10 | CCCC[P+](CC)(CC)CC.N#Cc1ccc[n-]1 |  |  |  |  |  |  |  | 137 ± 19 mPa·s | 104 ± 15 mPa·s |  | 62 ± 9 | viscosity (293.15 K, 100 kPa): 187 ± 27 mPa·s
11 | CCCCCCCCCCCCCCCCCC[P+](CCCC)(CCCC)CCCC.N#Cc1ccc[n-]1 |  |  |  |  |  |  |  | 519 ± 77 mPa·s | 379 ± 55 mPa·s |  | 208 ± 30 | viscosity (293.15 K, 100 kPa): 742 ± 110 mPa·s
12 | COC(C)OC | 4.04 mPa·s |  |  |  |  |  |  |  |  |  |  | 
13 | CC(CC(C)(C)C)CC(C)(C)C |  | 1.217 ± 0.018 mPa·s |  |  |  |  |  |  |  |  |  | viscosity (293.15 K, 102 kPa): 1.32 ± 0.02 mPa·s; viscosity (313.15 K, 102 kPa): 0.956 ± 0.021 mPa·s; viscosity (323.15 K, 102 kPa): 0.828 ± 0.021 mPa·s
14 | CN(C)c1ccccc1 |  |  | 1.18 ± 0.03 mPa·s and 1.177 ± 0.025 mPa·s and 1.203 ± 0.032 mPa·s |  |  | 0.854 ± 0.018 | 0.931 ± 0.02 mPa·s and 0.8294 ± 0.083 mPa·s and 0.9484 ± 0.025 mPa·s | 1.302 ± 0.058 mPa·s | 1.206 ± 0.054 mPa·s | 1.123 ± 0.05 mPa·s | 1.056 ± 0.047 | viscosity (293.15 K, 100 kPa): 1.415 ± 0.063 mPa·s; viscosity (298 K, 101 kPa): 1.283 ± 0.033 mPa·s; viscosity (298 K, 101.3 kPa): 1.282 ± 0.035 mPa·s; viscosity (303 K, 101 kPa): 1.18 ± 0.031 mPa·s; viscosity (303 K, 101.3 kPa): 1.177 ± 0.032 mPa·s; viscosity (308 K, 101 kPa): 1.096 ± 0.029 mPa·s; viscosity (308 K, 101.3 kPa): 1.1 ± 0.03 mPa·s; viscosity (313 K, 101 kPa): 1.02 ± 0.027 mPa·s; viscosity (313 K, 101.3 kPa): 1.02 ± 0.028 mPa·s; viscosity (313.35 K, 101 kPa): 1.021 ± 0.01 mPa·s; viscosity (318 K, 101 kPa): 0.968 ± 0.025 mPa·s; viscosity (318 K, 101.3 kPa): 0.967 ± 0.027 mPa·s; viscosity (318.15 K, 100 kPa): 0.9805 ± 0.044 mPa·s; viscosity (323.15 K, 100 kPa): 0.9197 ± 0.041 mPa·s
15 | FC(F)(F)c1ccccc1 | 0.53 ± 0.03 mPa·s | 0.5524 ± 0.0057 mPa·s |  |  |  | 0.46 ± 0.02 |  |  |  |  |  | 
16 | CCCCN(CCCC)CCCC | 1.273 ± 0.019 mPa·s | 1.28 ± 0.014 mPa·s | 1.157 ± 0.018 mPa·s and 1.155 ± 0.0095 mPa·s | 1.064 ± 0.018 mPa·s and 1.069 ± 0.013 mPa·s | 0.9845 ± 0.012 mPa·s and 1 ± 0.0086 mPa·s | 0.8422 ± 0.011 | 0.9086 ± 0.011 mPa·s |  | 1.14 ± 0.03 mPa·s and 1 mPa·s | 1.09 ± 0.03 mPa·s |  | viscosity (293.15 K, 101.33 kPa): 1.45 ± 0.016 mPa·s; viscosity (308.15 K, 101.33 kPa): 1.07 ± 0.011 mPa·s; viscosity (313.15 K, 101.3 kPa): 0.9974 ± 0.012 mPa·s; viscosity (313.15 K, 101.33 kPa): 0.99 ± 0.01 mPa·s; viscosity (323.15 K, 101.33 kPa): 0.863 ± 0.009 mPa·s
